Here are results for 24 molecules from patent US20250215029A1 (Recludix Pharma, Inc., priority 2022, published 2025).

Like-named read-outs stand apart in the source and are kept apart here.

The target of assay [1] is T1, Recombinant STAT3 protein (STAT3 (G127-I722)) (Homo sapiens, UniProt P40763).
T1 construct: Recombinant STAT3 protein (STAT3 (G127-I722))
Kind of assay: STAT3 Fluorescence Polarization (FP) Assay. The class given is binding. As to conditions: STAT3 (G127-I722) 25 nM, probe 5-FAM-GpYLPQTV-NH2 2 nM, 45-minute incubation; read-out: STAT3 (FP assay IC50 class). In short, it runs like this:
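Displacement of a 2 nM 5-FAM-labelled pY peptide (GpYLPQTV) from 25 nM recombinant STAT3 (G127-I722) was monitored by fluorescence polarization. Incubation lasted 45 min at room temperature in pH 7.4 HEPES buffer containing 1% DMSO.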
On the technique in general: Fluorescence polarisation rises when a labelled molecule tumbles more slowly, as on binding a larger partner.

In assay [2] the target is T2, Recombinant STAT6 protein (STAT6 (W123-T658)) (Homo sapiens, UniProt P42226).
T2 construct: Recombinant STAT6 protein (STAT6 (W123-T658))
T2 sequence (P42226 123-658): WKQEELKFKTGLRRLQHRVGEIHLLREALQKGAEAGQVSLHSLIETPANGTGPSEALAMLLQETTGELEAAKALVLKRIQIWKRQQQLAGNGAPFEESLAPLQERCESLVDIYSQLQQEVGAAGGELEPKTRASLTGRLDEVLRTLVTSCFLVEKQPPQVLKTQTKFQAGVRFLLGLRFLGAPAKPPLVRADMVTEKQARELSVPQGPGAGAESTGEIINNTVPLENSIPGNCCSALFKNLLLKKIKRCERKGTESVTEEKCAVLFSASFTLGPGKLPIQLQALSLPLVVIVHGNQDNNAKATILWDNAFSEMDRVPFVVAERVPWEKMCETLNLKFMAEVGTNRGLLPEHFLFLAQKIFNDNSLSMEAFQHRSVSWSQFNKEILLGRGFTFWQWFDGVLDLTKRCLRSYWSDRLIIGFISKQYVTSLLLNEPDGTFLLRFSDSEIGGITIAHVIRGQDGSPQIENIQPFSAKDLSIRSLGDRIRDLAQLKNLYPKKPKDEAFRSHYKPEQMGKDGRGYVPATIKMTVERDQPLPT
Kind of assay: STAT6 Fluorescence Polarization (FP) Assay. The class given is binding. As to conditions: STAT6 (W123-T658) 250 nM, 45-minute incubation, read-out: STAT6 (FP assay IC50 class). In short, it runs like this:
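Probe displacement format: serially diluted compounds incubated 45 min at room temperature with 2 nM fluorescent phosphopeptide and 250 nM STAT6 (W123-T658) in pH 7.4 HEPES buffer, 1% DMSO final. Polarization signal plotted against log concentration, IC50 fitted by nonlinear regression.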

Setting [3] is: probe 5-FAM-ApYKPFQDLI-NH2 2 nM.

T1 sequence (P40763 127-722): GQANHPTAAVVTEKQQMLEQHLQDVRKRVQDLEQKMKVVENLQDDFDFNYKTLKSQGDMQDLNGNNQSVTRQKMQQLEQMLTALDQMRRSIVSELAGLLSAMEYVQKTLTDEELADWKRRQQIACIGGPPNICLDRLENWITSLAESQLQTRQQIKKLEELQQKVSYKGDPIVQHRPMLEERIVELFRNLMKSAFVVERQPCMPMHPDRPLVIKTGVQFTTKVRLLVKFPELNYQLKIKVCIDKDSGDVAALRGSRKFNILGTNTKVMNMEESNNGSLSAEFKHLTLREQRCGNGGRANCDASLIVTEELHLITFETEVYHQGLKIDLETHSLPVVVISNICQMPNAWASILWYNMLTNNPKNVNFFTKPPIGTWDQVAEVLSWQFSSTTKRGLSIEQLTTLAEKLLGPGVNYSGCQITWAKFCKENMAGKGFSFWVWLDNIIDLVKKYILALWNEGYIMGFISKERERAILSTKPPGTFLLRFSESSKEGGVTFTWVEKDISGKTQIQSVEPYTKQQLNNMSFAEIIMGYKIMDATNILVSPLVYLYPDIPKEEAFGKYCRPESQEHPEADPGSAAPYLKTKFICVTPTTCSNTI

Turning to `Cc1ccncc1C1CN(C(=O)[C@@H]2CC[C@@H]3C[C@H](C)C[C@H](NC(=O)c4cc5cc([C@H](F)P(=O)(O)O)ccc5s4)C(=O)N32)C1` (single isomer, unassigned) [Compound 740], the figures for the IC50 in assay [1] and in assay [2] (probe 5-FAM-Ap[…]-NH2 2 nM) were less than 100 nM and 3000 to 30000 nM, respectively.

Take `O=C(N[C@H]1CCC[C@H]2CC[C@@H](C(=O)N3CC(c4cnccc4N4CCC4)C3)N2C1=O)c1cc2cc([C@@H](F)P(=O)(O)O)ccc2s1` (single isomer, unassigned) [Compound 741]: the values for the IC50 in assay [1] and in assay [2] (probe 5-FAM-Ap[…]-NH2 2 nM) were less than 100 nM and 300 to 3000 nM, respectively.

On to `O=C(N[C@H]1CCC[C@H]2CC[C@@H](C(=O)N3CC(c4cnccc4N4CCC4)C3)N2C1=O)c1cc2cc([C@H](F)P(=O)(O)O)ccc2s1` (single isomer, unassigned) [Compound 742], for which the IC50 is less than 100 nM in assay [1] and 300 to 3000 nM in assay [2] (probe 5-FAM-Ap[…]-NH2 2 nM).

Regarding `O=C(N[C@H]1CCC[C@H]2CC[C@@H](C(=O)N3CC(c4cnccc4N4CCOCC4)C3)N2C1=O)c1cc2cc([C@@H](F)P(=O)(O)O)ccc2s1` (single isomer, unassigned) [Compound 745], the values for the IC50 in assay [1] and in assay [2] (probe 5-FAM-Ap[…]-NH2 2 nM) were less than 100 nM and 3000 to 30000 nM, respectively.

Turning to `O=C(N[C@H]1CCC[C@H]2CC[C@@H](C(=O)N3CC(c4cnccc4N4CCOCC4)C3)N2C1=O)c1cc2cc([C@H](F)P(=O)(O)O)ccc2s1` (single isomer, unassigned) [Compound 746], the figures for the IC50 in assay [1] and in assay [2] (probe 5-FAM-Ap[…]-NH2 2 nM) were less than 100 nM and 3000 to 30000 nM, respectively.

Consider `COc1ccncc1C1CN(C(=O)[C@@H]2CC[C@@H]3CCC[C@H](NC(=O)c4cc5cc([C@H](F)P(=O)(O)O)ccc5s4)C(=O)N32)C1` (single isomer, unassigned) [Compound 747], for which the IC50 in assay [1] was less than 100 nM; in assay [2] (probe 5-FAM-Ap[…]-NH2 2 nM), 3000 to 30000 nM.

`CC(C)Oc1ccncc1C1CN(C(=O)[C@@H]2CC[C@@H]3C[C@@H](C)C[C@H](NC(=O)c4cc5cc([C@H](F)P(=O)(O)O)ccc5s4)C(=O)N32)C1` (single isomer, unassigned) [Compound 748]: the IC50 in assay [1] was less than 100 nM; in assay [2] (probe 5-FAM-Ap[…]-NH2 2 nM) it was 3000 to 30000 nM.

Consider `Cc1ccncc1C1CN(C(=O)[C@@H]2CC[C@@H]3C[C@H](C)C[C@H](NC(=O)c4cc5cc([C@@H](F)P(=O)(O)O)ccc5s4)C(=O)N32)C1` (single isomer, unassigned) [Compound 753], for which the IC50 was less than 100 nM in assay [1] and 3000 to 30000 nM in assay [2] (probe 5-FAM-Ap[…]-NH2 2 nM).

For `Cc1ccncc1C1CN(C(=O)[C@@H]2CC[C@@H]3CCC[C@H](NC(=O)c4cc5cc([C@@H](F)P(=O)(O)O)ccc5s4)C(=O)N32)C1` (single isomer, unassigned) [Compound 755], the IC50 in assay [1] is less than 100 nM; in assay [2] (probe 5-FAM-Ap[…]-NH2 2 nM) it was 3000 to 30000 nM.

Turning to `COc1ccncc1C1CN(C(=O)[C@@H]2CC[C@@H]3CCC[C@H](NC(=O)c4cc5cc([C@@H](F)P(=O)(O)O)ccc5s4)C(=O)N32)C1` (single isomer, unassigned) [Compound 756], the results for the IC50 in assay [1] and in assay [2] (probe 5-FAM-Ap[…]-NH2 2 nM) were less than 100 nM and 3000 to 30000 nM, respectively.

As to `CCOc1ccncc1C1CN(C(=O)[C@@H]2CC[C@@H]3CCC[C@H](NC(=O)c4cc5cc([C@@H](F)P(=O)(O)O)ccc5s4)C(=O)N32)C1` (single isomer, unassigned) [Compound 771], the IC50 in assay [1] was less than 100 nM; in assay [2] (probe 5-FAM-Ap[…]-NH2 2 nM), 3000 to 30000 nM.

As for `CCOc1ccncc1C1CN(C(=O)[C@@H]2CC[C@@H]3CCC[C@H](NC(=O)c4cc5cc([C@H](F)P(=O)(O)O)ccc5s4)C(=O)N32)C1` (single isomer, unassigned) [Compound 772], the IC50 in assay [1] was less than 100 nM; in assay [2] (probe 5-FAM-Ap[…]-NH2 2 nM) it was 3000 to 30000 nM.

`C[C@H]1C[C@H]2CC[C@@H](C(=O)N3C[C@@H](C#N)[C@H](c4ccccc4)C3)N2C(=O)[C@@H](NC(=O)c2cc3cc(C(F)(F)P(=O)(O)O)ccc3s2)C1` (single isomer, unassigned) [Compound 782]: the IC50 in assay [1] lay in the range of 100 to 1000 nM; in assay [2] (probe 5-FAM-Ap[…]-NH2 2 nM), 300 to 3000 nM.

Regarding `N#C[C@@H]1[C@@H](c2ccccc2)CN(C(=O)[C@@H]2CC[C@@H]3CCCC[C@H](NC(=O)c4ccc5ccc([C@@H](F)P(=O)(O)O)cc5c4)C(=O)N32)C12CC2` (single isomer, unassigned) [Compound 832], the values for the IC50 in assay [1] and in assay [2] (probe 5-FAM-Ap[…]-NH2 2 nM) were 1000 to 10000 nM and not above 300 nM, respectively.

In the case of `N#C[C@@H]1[C@@H](c2cccnc2)CN(C(=O)[C@@H]2CC[C@@H]3CCC[C@H](NC(=O)c4cc5cc([C@H](F)P(=O)(O)O)ccc5s4)C(=O)N32)C12CC2` (single isomer, unassigned) [Compound 833], the IC50 in assay [1] is 1000 to 10000 nM; in assay [2] (probe 5-FAM-Ap[…]-NH2 2 nM), not above 300 nM.

As to `N#C[C@@H]1[C@@H](c2ccccc2)CN(C(=O)[C@@H]2CC[C@@H]3CCCC[C@H](NC(=O)c4cc5cc([C@H](F)P(=O)(O)O)ccc5s4)C(=O)N32)C12CC2` (single isomer, unassigned) [Compound 835], the IC50 was 1000 to 10000 nM in assay [1] and not above 300 nM in assay [2] (probe 5-FAM-Ap[…]-NH2 2 nM).

For `N#C[C@H]1[C@H](c2ccccc2)CN(C(=O)[C@@H]2CC[C@@H]3CCCC[C@H](NC(=O)c4cc5cc([C@@H](F)P(=O)(O)O)ccc5s4)C(=O)N32)C12CC2` (single isomer, unassigned) [Compound 836], the IC50 in assay [1] was 1000 to 10000 nM; in assay [2] (probe 5-FAM-Ap[…]-NH2 2 nM) it was not above 300 nM.

In the case of `N#C[C@@H]1[C@@H](c2cccnc2)CN(C(=O)[C@@H]2CC[C@@H]3CCC[C@H](NC(=O)c4cc5cc([C@@H](F)P(=O)(O)O)ccc5s4)C(=O)N32)C12CC2` (single isomer, unassigned) [Compound 837], the IC50 in assay [1] was 1000 to 10000 nM; in assay [2] (probe 5-FAM-Ap[…]-NH2 2 nM) it was not above 300 nM.

Regarding `N#C[C@@H]1[C@@H](c2cccnc2)CN(C(=O)[C@@H]2CC[C@@H]3CCCC[C@H](NC(=O)c4cc5cc([C@H](F)P(=O)(O)O)ccc5s4)C(=O)N32)C12CC2` (single isomer, unassigned) [Compound 839], the IC50 in assay [1] was 1000 to 10000 nM; in assay [2] (probe 5-FAM-Ap[…]-NH2 2 nM), not above 300 nM.

As to `N#C[C@@H]1[C@@H](c2cccnc2)CN(C(=O)[C@@H]2CC[C@@H]3CCCC[C@H](NC(=O)c4cc5cc([C@H](F)P(=O)(O)O)ccc5s4)C(=O)N32)C12CC2` (single isomer, unassigned) [Compound 840], the IC50 in assay [1] is 1000 to 10000 nM; in assay [2] (setting [3]), not above 300 nM.

For the molecule `N#C[C@@H]1[C@@H](c2cncc(Cl)c2)CN(C(=O)[C@@H]2CC[C@@H]3CCC[C@H](NC(=O)c4cc5cc([C@H](F)P(=O)(O)O)ccc5s4)C(=O)N32)C12CC2` (single isomer, unassigned) [Compound 841], the IC50 in assay [1] was 1000 to 10000 nM; in assay [2] (probe 5-FAM-Ap[…]-NH2 2 nM) it was 300 to 3000 nM.

On to `N#C[C@@H]1[C@@H](c2cncc(Cl)c2)CN(C(=O)[C@@H]2CC[C@@H]3CCC[C@H](NC(=O)c4cc5cc([C@H](F)P(=O)(O)O)ccc5s4)C(=O)N32)C12CC2` (single isomer, unassigned) [Compound 842], for which the figures for the IC50 in assay [1] and in assay [2] (setting [3]) were 1000 to 10000 nM and 300 to 3000 nM, respectively.

Regarding `COc1cncc([C@@H]2CN(C(=O)[C@@H]3CC[C@@H]4CCC[C@H](NC(=O)c5cc6cc([C@H](F)P(=O)(O)O)ccc6s5)C(=O)N43)C3(CC3)[C@H]2C#N)c1` (single isomer, unassigned) [Compound 843], the values for the IC50 in assay [1] and in assay [2] (probe 5-FAM-Ap[…]-NH2 2 nM) were 1000 to 10000 nM and 300 to 3000 nM, respectively.

With `COc1cncc([C@H]2CN(C(=O)[C@@H]3CC[C@@H]4CCC[C@H](NC(=O)c5cc6cc([C@@H](F)P(=O)(O)O)ccc6s5)C(=O)N43)C3(CC3)[C@@H]2C#N)c1` (single isomer, unassigned) [Compound 844], the IC50 in assay [1] fell in the range of 1000 to 10000 nM; in assay [2] (probe 5-FAM-Ap[…]-NH2 2 nM), 300 to 3000 nM.

For orientation: IC50 means the midpoint of a concentration-inhibition curve.
